US20080281526A1, “Methods For Molecular Toxicology Modeling” (priority 2004, published 2008)
Where two headings read alike, the source gives them in different places.

System: rat liver tissue
Experimental: From the nucleic acid hybridization data, a prediction score is calculated for that sample and compared to a reference score from a toxicity reference database according to the following equation. The sample prediction score=ΣwiR^FC^i. “i” is the index number for each gene in a gene expression profile to be evaluated. “wi” is the PLS weight (or PLS score, see Table 2 for an exemplary list of PLS scores for a general kidney toxicity model) for each gene. “R^FC^i” is the RMA fold-change value for the i^th gene, as determined from a normalized RMA matrix of gene expression data from the sample (described above). The PLS weight multiplied by the RMA fold-change value gives a gene regulation score for each gene, and the regulation scores for all the individual genes are added to give a prediction score for the sample.
To establish a toxicity prediction score cut-off value for a toxicity model, the true-positive and false positive rates for each possible score cut-off value are computed, using the scores from all tox and non-tox samples in the training set. This generates an ROC curve, which we use to set the cut-off score at the point on the ROC curve corresponding to ˜5% false positive rate. For example, in a kidney toxicity model of Table 2, a cut-off prediction score is about 0.318.
The conversion algorithm was tested using the liver toxicity model described in U.S. Provisional Application Ser. No. 60/559,949 and herein incorporated by reference.
The first step to using a conversion algorithm is to map microarray fragments. The RGU34 A microarray fragments which comprise the liver toxicity model were mapped to the RAE2.0 microarray. The liver toxicity model is based on 1,100 Affymetrix GeneChip® RGU34 A microarray fragments. […] See Affymetrix's “User's Guide to Product Comparison Spreadsheets” which is herein incorporated by reference.
Once the microarray fragments are mapped, training samples are selected to calculate the conversion model weights. The inventors searched Gene Logic's ToxExpress® reference database, a database which is built on the Affymetrix RGU34A platform, for samples that covered a large amount of interquartile range with respect to signal intensity. […] The samples maximized Ei(Max(Xij)−Min(Xij)), where i indexes genes and j indexes samples.
For this reason, a training set consisting of 100 compounds and vehicles from rat liver tissue was selected.
The 100 training samples were used to train the weights in the conversion algorithm. This step is important because it provides for the quantitative aspect of the conversion. The weight training was performed based on a multiple regression analysis with probe values as the independent variables and RMA expression as the sum of the dependent variables.
Test samples were evaluated using the trained conversion algorithm. The multiple regression model was built on the 11 perfect match probe intensities and generated a predicted RGU34 expression value from a weighted sum of RAE 2.0 probe values. Each test array was scaled to an average probe intensity of 10 (log scale). The conversion algorithm used is given as:
Yi^RGU34=βio+Σβij LOG(Xij^RAE2.0/S)

[1] = RAE2.0 converted RMA data, liver predictive model
[2] = RGU34 RMA data, liver predictive model

Structure (SMILES) | number of test samples predicted as toxic out of the total number of samples for that compound [1] | number of test samples predicted as toxic out of the total number of samples for that compound [2] | number of test samples predicted as toxic out of the total number of samples for that compound (rat, in vivo)
CN(C)CCC=C1c2ccccc2CCc2ccccc21 [Amitryptilene] | 2/2 | 1/2 | 
CN(C)CCC(c1ccc(Cl)cc1)c1ccccn1 (stereo not drawn) [Chlorpheniramine, chlorpheniramine] |  |  | 0/3
CCOC(=O)C(C)(C)Oc1ccc(Cl)cc1 [Clofibrate] |  |  | 0/3
O=C(O)c1cc(-c2ccc(F)cc2F)ccc1O [Diflunisal, diflunisal] |  |  | 2/3
C[C@]12CC[C@@H]3c4ccc(O)cc4CC[C@H]3[C@@H]1CC[C@@H]2O [Estradiol, estradiol] |  |  | 3/3
CCSCC[C@H](N)C(=O)O [Ethionine, ethionine] | 3/3 | 3/3 | 
CCC1(c2ccccc2)C(=O)NC(=O)NC1=O [Phenobarbital, phenobarbital] | 3/3 | 3/3 | 
CN(CCOc1ccc(CC2SC(=O)NC2=O)cc1)c1ccccn1 (stereo not drawn) [Rosiglitazone, rosiglitazone] |  |  | 0/3
[H]/N=C(/N)N[C@H]1[C@H](O)[C@@H](O)[C@H](O[C@@H]2O[C@@H](C)[C@](O)(C=O)[C@H]2O[C@@H]2O[C@@H](CO)[C@H](O)[C@@H](O)[C@@H]2NC)[C@@H](N/C(N)=N\[H])[C@@H]1O [Streptomycin, streptomycin] |  |  | 0/3
